The results in this text go back to patent US12655124B2, “Heterocyclic compounds as modulators of stimulator of interferon genes (STING)” (RYVU THERAPEUTICS S.A., priority 2019, dated 2026).

The subject of assay [1] is CT26 murine colon carcinoma allografts. Description: In vivo anti-tumor efficacy, CT26 allograft. The following applies: once every fifth day on three occasions; for response of CT26 tumors to the treatment: intravenously, all dose levels. Set-up: species or system female Balb/C mice. As for the experimental part: In Vivo Anti-Tumor Efficacy The efficacy of Example 4, Example 31 and Example 57 was evaluated in established CT26 murine colon carcinoma allografts in female Balb/C mice. Compounds were formulated in 5% ethanol with 10% Captisol in PBS and administered intravenously, once every fifth day on three occasions. The solution was prepared fresh prior to each administration. […] By the end of the study there was one complete response among animals treated at 10 mg/kg of Example 4. […] By the end of the study, on day 43, there was one complete response recorded in group treated at 20 mg/kg of Example 57.

Another assay has as its target human STING (Homo sapiens, UniProt Q86WV6). The assay can be described thus: Fluorescence Thermal Shift assay (hSTING FTS binding assay).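 Also: STING preincubated with compound for 20 min in HEPES NaCl buffer pH 7.5.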 The following applies: ΔTm, STING 0.1 mg/mL, SyproOrange, 25 to 99° C. As for the experimental part: Fluorescence Thermal Shift Assay Compounds of the present invention were tested for binding to human STING in Fluorescence Thermal Shift assay. […] Final STING concentration was 0.1 mg/mL. Thermal unfolding was performed in Real-Time PCR QuantStudio 6 Flex System (Applied Biosystems), from 25 to 99° C., with continuous ramp mode and ramp rate 0.033° C./s. The data were analyzed using Protein Thermal Shift Software (ThermoFisher).

human STING, sequence (Q86WV6 whole entry H232R): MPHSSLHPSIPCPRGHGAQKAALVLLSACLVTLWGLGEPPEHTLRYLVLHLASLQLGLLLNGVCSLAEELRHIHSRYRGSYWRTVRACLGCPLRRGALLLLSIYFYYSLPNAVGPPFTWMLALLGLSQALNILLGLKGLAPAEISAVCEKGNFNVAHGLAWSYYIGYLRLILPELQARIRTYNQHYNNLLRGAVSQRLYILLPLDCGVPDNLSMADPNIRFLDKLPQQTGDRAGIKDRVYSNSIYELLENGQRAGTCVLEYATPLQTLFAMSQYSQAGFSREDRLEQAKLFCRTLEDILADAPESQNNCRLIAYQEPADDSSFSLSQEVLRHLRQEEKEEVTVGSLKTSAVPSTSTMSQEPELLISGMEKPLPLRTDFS

Consider `Cc1ccc(N2CCC[C@H](N(Cc3ccnc(C)c3)Cc3cn(C4CC4)c4cc(N5CCC[C@H](O)C5)c(F)cc4c3=O)C2)cn1.Cl` [Example 31, 1-cyclopropyl-6-fluoro-7-[(3S)-3-hydroxypiperidin-1-yl]-3-({[(3S)-1-(6-methylpyridin-3-yl)piperidin-3-yl][(2-methylpyridin-4-yl)methyl]amino}methyl)-1,4-dihydroquinolin-4-one Hydrochloride], for which the “tumor growth effect compared to the control group” value in assay [1] (7 mg/kg intravenously) was “slight tumor growth delay”; in assay [1] (15 mg/kg intravenously) it was “prominently efficacious”; in assay [1] (30 mg/kg intravenously), “prominently efficacious”. For the same compound, in assay [1] (30 mg/kg intravenously, day 43), the “complete responses by the end of the study” value (from here on “complete responses by the end”) is recorded as “two”. Also, in assay [1], the “response of CT26 tumors to the treatment” value is recorded as “responded prominently”. Besides, the “hSTING FTS binding assay (ΔT ° C.)” value on human STING is listed as “+++ (ΔTm≥20° C.)”.
For the compound `COc1cc(CN(Cc2cn(C3CC3)c3cc(F)c(F)cc3c2=O)[C@H]2CCCN(c3ccc(N)nc3)C2)ccn1.Cl` [Example 4, 3-({[(3S)-1-(6-Aminopyridin-3-yl)piperidin-3-yl][(2-methoxypyridin-4-yl)methyl]amino}methyl)-1-cyclopropyl-6,7-difluoro-1,4-dihydroquinolin-4-one Hydrochloride], the “tumor growth effect compared to the control group” value in assay [1] (7 mg/kg intravenously) is “efficacious and caused tumor growth delay or significant decrease of the tumor size”. Moreover, in assay [1] (10 mg/kg intravenously), the “complete responses by the end” value is listed as “one”; the “tumor growth effect compared to the control group” value is “efficacious and caused tumor growth delay or significant decrease of the tumor size”. Also, in assay [1], the “response of CT26 tumors to the treatment” value is “responded prominently”. The “hSTING FTS binding assay (ΔT ° C.)” value on human STING is “+++ (ΔTm≥20° C.)”.
Consider `Cc1ccc(N2CCC[C@H](N(Cc3ccnc(C)c3)Cc3cn(C4CC4)c4cc(N5CC[C@H](N)C(F)(F)C5)c(F)cc4c3=O)C2)cn1.Cl` (single isomer, unassigned) [Example 57], for which the “tumor growth effect compared to the control group” value is on record as “minimal tumor growth delay” in assay [1] (5 mg/kg intravenously), “moderately efficacious” in assay [1] (10 mg/kg intravenously) and “full efficacious” in assay [1] (20 mg/kg intravenously). The “complete responses by the end” value in assay [1] (20 mg/kg intravenously, day 43) is listed as “one”. For the same compound, the “dose dependence of the tumor response” value in assay [1] (5, 10 and 20 mg/kg intravenously) was “dose dependent manner”. Moreover, the “response of CT26 tumors to the treatment” value in assay [1] was “responded prominently”. Besides, at human STING, the “hSTING FTS binding assay (ΔT ° C.)” value was “+++ (ΔTm≥20° C.)”.
